In ChEMBL document CHEMBL1201862, “PubChem BioAssay data set” (2004):
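Values below derive from 48-hour exposures of cells grown in 96-well plates, with endpoints linearly interpolated between the two concentrations bracketing the appropriate inhibition level. Abbreviation: GI50, concentration required for 50% inhibition of growth.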 The source made the active and inactive calls. No stated cut-off is given here; in the data, active = GI50 up to about 1.1 µM and inactive = higher.

Legend:
Test in all cases: inhibition of tumour cell growth, NCI panel, 48 h
[1] = test system: 786-0
[2] = test system: CCRF-CEM
[3] = test system: HCT-15
[4] = test system: HOP-92
[5] = test system: HT-29
[6] = test system: LOX IMVI
[7] = test system: NCI-H460
[8] = test system: NCI-H522
[9] = test system: SF-268
[10] = test system: SF-295
[11] = test system: SK-MEL-2
[12] = test system: SK-MEL-5
[13] = test system: SK-OV-3
[14] = test system: SN12C
[15] = test system: SNB-75
[16] = test system: SR
[17] = test system: MCF7
[18] = test system: NCI/ADR-RES
[19] = test system: DU-145
[20] = test system: MDA-MB-231

SMILES | GI50 [1] | GI50 [2] | GI50 [3] [µM] | GI50 [4] | GI50 [5] | GI50 [6] | GI50 [7] | GI50 [8] | GI50 [9] | GI50 [10] | GI50 [11] | GI50 [12] | GI50 [13] | GI50 [14] | GI50 [15] | GI50 [16] | GI50 [17] | GI50 [18] | GI50 [19] | GI50 [20]
O=C(N/C(=C\c1ccc2c(c1)OCO2)c1nc2ccccc2[nH]1)c1ccccc1 | 59.2 µM (inactive) | 26.9 µM (inactive) | 35.6 | 18.8 µM (inactive) | 4.98 µM (inactive) | 38.5 µM (inactive) | 34.8 µM (inactive) | 14.7 µM (inactive) | 38.2 µM (inactive) | 43.7 µM (inactive) | 26.4 µM (inactive) | 16 µM (inactive) | 35.6 µM (inactive) | 30.2 µM (inactive) | 20.9 µM (inactive) | 21.9 µM (inactive) | – | – | – | –
CN1CC(C(=O)C2C(=O)c3ccccc3C2=O)C(=O)C(=O)C(C(=O)C2C(=O)c3ccccc3C2=O)C1 (stereo not drawn) | > 100 µM (inactive) | > 100 µM (inactive) | > 100 | 85.1 µM (inactive) | > 100 µM (inactive) | > 100 µM (inactive) | > 100 µM (inactive) | > 100 µM (inactive) | > 100 µM (inactive) | > 100 µM (inactive) | > 100 µM (inactive) | – | > 100 µM (inactive) | > 100 µM (inactive) | 32.9 µM (inactive) | > 100 µM (inactive) | – | – | – | –
COc1ccccc1NC(=O)C1=C(C)NC(C)=C(C(=O)Nc2ccccc2OC)C1c1ccc([N+](=O)[O-])cc1 | 99.5 µM (inactive) | 19.5 µM (inactive) | > 100 | – | 80.5 µM (inactive) | 48.9 µM (inactive) | 28.8 µM (inactive) | 24.4 µM (inactive) | > 100 µM (inactive) | 13.4 µM (inactive) | 74.5 µM (inactive) | 30.7 µM (inactive) | > 100 µM (inactive) | > 100 µM (inactive) | > 100 µM (inactive) | 67.5 µM (inactive) | – | – | – | –
N#Cc1ccccc1NC(=O)c1ccccc1 | > 100 µM (inactive) | – | > 100 | > 100 µM (inactive) | > 100 µM (inactive) | > 100 µM (inactive) | > 100 µM (inactive) | – | > 100 µM (inactive) | > 100 µM (inactive) | > 100 µM (inactive) | > 100 µM (inactive) | – | > 100 µM (inactive) | 68.5 µM (inactive) | > 100 µM (inactive) | – | – | – | –
Nc1nc(SCCC/C=C/B(O)O)nc2c1ncn2C1OC(COP(=O)(O)O)C(O)C1O (stereo not drawn) | > 203 µM (inactive) | > 203 µM (inactive) | > 203 | > 203 µM (inactive) | > 203 µM (inactive) | > 203 µM (inactive) | > 203 µM (inactive) | 115 µM (inactive) | > 203 µM (inactive) | > 203 µM (inactive) | > 203 µM (inactive) | > 203 µM (inactive) | > 203 µM (inactive) | > 203 µM (inactive) | > 203 µM (inactive) | > 203 µM (inactive) | – | – | – | –
Cc1c2ccnc(C(N)=O)c2c(C)c2c1[nH]c1ccccc12 | 5.08 µM (inactive) | 4.73 µM (inactive) | 4.1 | – | 6.35 µM (inactive) | 4.65 µM (inactive) | 3.81 µM (inactive) | 7.59 µM (inactive) | 5.46 µM (inactive) | 1.53 µM (inactive) | 13.1 µM (inactive) | 6.18 µM (inactive) | 7.66 µM (inactive) | 4.13 µM (inactive) | 10.6 µM (inactive) | – | 2.39 µM (inactive) | 5.65 µM (inactive) | – | –
N#CCC(=O)N/N=C(/C(=O)Nc1ccccc1)C1C(=O)N(c2ccccc2)N=C1N (stereo not drawn) | > 100 µM (inactive) | > 100 µM (inactive) | > 100 | > 100 µM (inactive) | > 100 µM (inactive) | > 100 µM (inactive) | > 100 µM (inactive) | > 100 µM (inactive) | > 100 µM (inactive) | > 100 µM (inactive) | > 100 µM (inactive) | > 100 µM (inactive) | > 100 µM (inactive) | > 100 µM (inactive) | > 100 µM (inactive) | > 100 µM (inactive) | – | – | – | –
Cc1nc2ccccc2c(=O)n1NC(=O)Cc1ccccc1 | > 100 µM (inactive) | > 100 µM (inactive) | – | > 100 µM (inactive) | > 100 µM (inactive) | > 100 µM (inactive) | > 100 µM (inactive) | > 100 µM (inactive) | > 100 µM (inactive) | > 100 µM (inactive) | – | > 100 µM (inactive) | > 100 µM (inactive) | > 100 µM (inactive) | 31 µM (inactive) | > 100 µM (inactive) | > 100 µM (inactive) | – | > 100 µM (inactive) | > 100 µM (inactive)
O=C1CS(=O)(=O)C(c2cccc(Oc3ccccc3)c2)N1c1cccc(Cl)c1Cl (stereo not drawn) | 15 µM (inactive) | 10.7 µM (inactive) | – | 7.26 µM (inactive) | 25.2 µM (inactive) | 17.7 µM (inactive) | 36.2 µM (inactive) | 18 µM (inactive) | 21.5 µM (inactive) | 33.8 µM (inactive) | 19.5 µM (inactive) | 18.2 µM (inactive) | 67 µM (inactive) | 19.8 µM (inactive) | 29.3 µM (inactive) | 18.7 µM (inactive) | 6.11 µM (inactive) | – | 42.6 µM (inactive) | 23.8 µM (inactive)
C(=N\c1ccc(-c2nc3ccccc3s2)cc1)/c1ccco1 | 83 µM (inactive) | 37.6 µM (inactive) | 51.2 | 39.5 µM (inactive) | 70 µM (inactive) | 54.1 µM (inactive) | 40.3 µM (inactive) | 44.5 µM (inactive) | 48.2 µM (inactive) | 18.9 µM (inactive) | 60.3 µM (inactive) | 33.5 µM (inactive) | 83.8 µM (inactive) | 75.2 µM (inactive) | 85.5 µM (inactive) | 50.2 µM (inactive) | – | 60.8 µM (inactive) | > 100 µM (inactive) | –
CCOC(=O)c1s/c(=N\Nc2nc3ccccc3cc2C2OCCO2)n(Cc2ccccc2)c1C | > 100 µM (inactive) | > 100 µM (inactive) | > 100 | > 100 µM (inactive) | > 100 µM (inactive) | > 100 µM (inactive) | > 100 µM (inactive) | > 100 µM (inactive) | > 100 µM (inactive) | > 100 µM (inactive) | > 100 µM (inactive) | > 100 µM (inactive) | > 100 µM (inactive) | > 100 µM (inactive) | > 100 µM (inactive) | 4.65 µM (inactive) | – | – | – | –
Cc1ccc2c(c1)-c1nc(N)c(C#N)c(-c3ccc(Cl)cc3)c1CCS2(=O)=O | 40.6 µM (inactive) | 20.7 µM (inactive) | 43.2 | 36.1 µM (inactive) | 21.4 µM (inactive) | 35.8 µM (inactive) | 35.2 µM (inactive) | 29.8 µM (inactive) | 67.6 µM (inactive) | – | 22.5 µM (inactive) | 18.2 µM (inactive) | – | 55.7 µM (inactive) | 49 µM (inactive) | 24.5 µM (inactive) | – | 36.2 µM (inactive) | 53.8 µM (inactive) | 27.1 µM (inactive)
O=C(O/N=C1/CCCC/C1=C\c1ccccc1)c1ccccc1 | > 100 µM (inactive) | 36.8 µM (inactive) | 84.3 | 63.5 µM (inactive) | 40 µM (inactive) | 33 µM (inactive) | > 10 µM (inactive) | 27.7 µM (inactive) | 33.3 µM (inactive) | 70.3 µM (inactive) | > 100 µM (inactive) | 0.146 µM (active) | > 100 µM (inactive) | > 100 µM (inactive) | > 100 µM (inactive) | 43.5 µM (inactive) | – | – | – | –
N#Cc1nc(Nc2ccc(Cl)cc2)sc1N | 8.43 µM (inactive) | 2.94 µM (inactive) | 7.18 | 20.9 µM (inactive) | 19.7 µM (inactive) | 3.47 µM (inactive) | 16.4 µM (inactive) | 3.01 µM (inactive) | 5.47 µM (inactive) | 16.9 µM (inactive) | 15.1 µM (inactive) | 2.61 µM (inactive) | 21.5 µM (inactive) | 4.54 µM (inactive) | 28.8 µM (inactive) | 1.51 µM (inactive) | – | – | – | –
C[C@@H]1C[C@H]2[C@@H]3CCC4=CC(=O)C=C[C@]4(C)[C@@]3(Cl)[C@@H](Cl)C[C@]2(C)[C@@]1(O)C(=O)COP(=O)(O)O | 49.3 µM (inactive) | – | > 100 | > 100 µM (inactive) | > 100 µM (inactive) | > 100 µM (inactive) | – | > 100 µM (inactive) | > 100 µM (inactive) | > 100 µM (inactive) | > 100 µM (inactive) | > 100 µM (inactive) | > 100 µM (inactive) | 17.6 µM (inactive) | > 100 µM (inactive) | 11.4 µM (inactive) | > 100 µM (inactive) | – | > 100 µM (inactive) | > 100 µM (inactive)
C/C(=N\NS(=O)(=O)c1ccccc1)c1ccc[n+]([O-])n1 | > 100 µM (inactive) | 19.4 µM (inactive) | > 100 | 39 µM (inactive) | > 100 µM (inactive) | – | > 100 µM (inactive) | 25.6 µM (inactive) | > 100 µM (inactive) | > 100 µM (inactive) | – | > 100 µM (inactive) | > 100 µM (inactive) | > 100 µM (inactive) | 47.6 µM (inactive) | 32.3 µM (inactive) | – | – | – | –
c1ccc(-c2cn3nc(N4CCOCC4)sc3n2)cc1 | 37.4 µM (inactive) | > 100 µM (inactive) | > 100 | – | > 100 µM (inactive) | – | 54.1 µM (inactive) | > 100 µM (inactive) | > 100 µM (inactive) | > 100 µM (inactive) | > 100 µM (inactive) | > 100 µM (inactive) | > 100 µM (inactive) | 8.49 µM (inactive) | 38.7 µM (inactive) | – | > 100 µM (inactive) | > 100 µM (inactive) | > 100 µM (inactive) | 85.9 µM (inactive)
